Where two headings read alike, the source gives them in different places.
Columns and labels:
Assay type in all cases: cell-based
HIV strain B = assay: Antiviral spectrum, clinically isolated mutant strain B; conditions: FR=EC50(mutant strain)/EC50(HIV-1 strain LAI)
Method: (§1) HIV- or mock-infected MT4 cells were incubated for five days in the presence of various concentrations of the inhibitor. At the end of the incubation period, all HIV-infected cells have been killed by the replicating virus in the control cultures in the absence of any inhibitor. Cell viability is measured by measuring the concentration of MTT, a yellow, water soluble tetrazolium dye that is converted to a purple, water insoluble formazan in the mitochondria of living cells only. Upon solubilization of the resulting formazan crystals with isopropanol, the absorbance of the solution is monitored at 540 nm. The values correlate directly to the number of living cells remaining in the culture at the completion of the five day incubation. The inhibitory activity of the compound was monitored on the virus-infected cells and was expressed as EC50 and EC90. These values represent the amount of the compound required to protect 50% and 90%, respectively, of the cells from the cytopathogenic effect of the virus. The toxicity of the compound was measured on the mock-infected cells and was expressed as CC50, which represents the concentration of compound required to inhibit the growth of the cells by 50%. The selectivity index (SI) (ratio CC50/EC50) is an indication of the selectivity of the anti-HIV activity of the inhibitor. Wherever results are reported as e.g. pEC50 or pCC50 values, the result is expressed as the negative logarithm of the result expressed as EC50 or CC50 respectively.
(§2) Because of the increasing emergence of drug resistant HIV strains, the present compounds were tested for their potency against clinically isolated HIV strains harboring several mutations (Table 2 and 3). These mutations are associated with resistance to protease inhibitors and result in viruses that show various degrees of phenotypic cross-resistance to the currently commercially available drugs such as for instance saquinavir, ritonavir, nelfinavir, indinavir and amprenavir.
(§3) As a measure of the broad spectrum activity of the present compounds, the fold resistance (FR), defined as FR=EC50(mutant strain)/EC50(HIV-1 strain LAI), was determined.

HIV strain E = assay: Antiviral spectrum, clinically isolated mutant strain E; conditions: FR=EC50(mutant strain)/EC50(HIV-1 strain LAI)
Method: as §1, §2, §3

HIV strain C = assay: Antiviral spectrum, clinically isolated mutant strain C; conditions: FR=EC50(mutant strain)/EC50(HIV-1 strain LAI)
Method: as §1, §2, §3

HIV-1 strain LAI = assay: Cellular anti-HIV assay, MT4 cells, MTT read-out, wild type strain
Method: as §1, with “The compounds of the present invention were examined for anti-viral activity in a cellular assay. […] The cellular assay was performed according to the following procedure. HIV- or” for “HIV- or”

[1] = Toxicity on mock-infected MT4 cells (MTT); conditions: human
Method: as §1, §3

HIV strain F = assay: Antiviral spectrum, clinically isolated mutant strain F; conditions: FR=EC50(mutant strain)/EC50(HIV-1 strain LAI)
Method: as §1, §2, §3

HIV strain A = assay: Antiviral spectrum, clinically isolated mutant strain A; conditions: FR=EC50(mutant strain)/EC50(HIV-1 strain LAI)
Method: as §1, §2, §3

HIV strain D = assay: Antiviral spectrum, clinically isolated mutant strain D; conditions: FR=EC50(mutant strain)/EC50(HIV-1 strain LAI)
Method: as §1, §2, §3

[2] = Human immunodeficiency virus 1, MT4, Table 3, wild type HIV-LAI strain, read-out: WT (pEC50) (converted)
[3] = Human immunodeficiency virus 1, 120 h, Table 1, MT4 cells, five days incubation, HIV-1 strain LAI, read-out: pEC50 (converted)

| Structure (SMILES) | B (FR towards mutant B) (HIV strain B) | E (FR towards mutant E) (HIV strain E) | C (FR towards mutant C) (HIV strain C) | EC50 (HIV-1 strain LAI; [2]) [nM] | CC50 at 5 days [1] [nM] | F (FR towards mutant F) (HIV strain F) | A (FR towards mutant A) (HIV strain A) | D (FR towards mutant D) (HIV strain D) | EC50 (HIV-1 strain LAI; [3]) [nM] | EC50 (HIV-1 strain LAI; Human immunodeficiency virus 1, MT4, read-out: WT (pEC50) (converted)) [nM] |
| --- | --- | --- | --- | --- | --- | --- | --- | --- | --- | --- |
| CC(C)CN(C[C@@H](O)[C@H](Cc1ccccc1)NC(=O)OC1COC2OCCC12)S(=O)(=O)c1ccc2c(c1)CC(=O)N2 (stereo in doubt) [Compound 21, Hexahydrofuro[2,3-b]furan-3-yl N-(1-benzyl-2-hydroxy-3-{isobutyl[(2-oxo-2,3-dihydro-1H-indol-5-yl)sulfonyl]amino}propyl}carbamate] | 1.1 | 0.56 | 0.7 | 158 | 100000 | 1.2 | 1.0 | 0.33 |  |  |
| CC(C)CN(CC(O)C(Cc1ccccc1)NC(=O)OC1COC2OCCC12)S(=O)(=O)c1ccc2c(c1)C(=Cc1ccc[nH]1)C(=O)N2 (stereo not shown) [Compound 1, (1-Benzyl-2-hydroxy-3-{isobutyl-[2-oxo-3-(1H-pyrrol-2-ylmethylene)-2,3-dihydro-1H-indole-5-sulfonyl]-amino}-propyl)-carbamic acid hexahydrofuro[2,3-b]furan-3-yl ester] | 8.7 | 6.2 | 2.1 | 3.16 | 12600 | 10 | 4.3 | 2.0 | 3.16 |  |
| Cc1ccc(C=C2C(=O)Nc3ccc(S(=O)(=O)N(CC(C)C)CC(O)C(Cc4ccccc4)NC(=O)OC4COC5OCCC45)cc32)o1 (stereo not shown) [Compound 2, (1-Benzyl-2-hydroxy-3-{isobutyl-[3-(5-methyl-furan-2-ylmethylene)-2-oxo-2,3-dihydro-1H-indole-5-sulfonyl]-amino}-propyl)-carbamic acid hexahydro-furo[2,3-b]furan-3-yl ester] | 3.6 | 3.1 | 1 |  | 20000 | 3.9 | 1.7 | 3.8 | 8.51 | 9.77 |
| Cc1ccc(C=C2C(=O)Nc3ccc(S(=O)(=O)N(CC(C)C)CC(O)C(Cc4ccccc4)NC(=O)OC4COC5OCCC45)cc32)s1 (stereo not shown) [Compound 3, (1-Benzyl-2-hydroxy-3-{isobutyl-[3-(5-methyl-thiophen-2-ylmethylene)-2-oxo-2,3-dihydro-1H-indole-5-sulfonyl]-amino}-propyl)-carbamic acid hexahydro-furo[2,3-b]furan-3-yl ester] | 3.8 | 7.1 | 2.6 | 12.6 | 100000 | 6.8 | 3.0 | 3.0 | 11.5 |  |
| CC(C)CN(CC(O)C(Cc1ccccc1)NC(=O)OC1COC2OCCC12)S(=O)(=O)c1ccc2c(c1)C(=Cc1cccn1C)C(=O)N2 (stereo not shown) [Compound 4, (1-Benzyl-2-hydroxy-3-{isobutyl-[3-(1-methyl-1H-pyrrol-2-ylmethylene)-2-oxo-2,3-dihydro-1H-indole-5-sulfonyl]-amino}-propyl)-carbamic acid hexahydro-furo[2,3-b]furan-3-yl ester] | 1.9 | 2.4 | 1.7 | 15.8 | 100000 | 2.0 | 2.3 | 1.9 | 15.5 |  |
| CCC(C=C1C(=O)Nc2ccc(S(=O)(=O)N(CC(C)C)CC(O)C(Cc3ccccc3)NC(=O)OC3COC4OCCC34)cc21)CC (stereo not shown) [Compound 5, (1-Benzyl-3-{[3-(2-ethyl-butylidene)-2-oxo-2,3-dihydro-1H-indole-5-sulfonyl]-isobutyl-amino}-2-hydroxy-propyl)-carbamic acid hexahydro-furo[2,3-b]furan-3-yl ester] | 8.3 | 4.2 | 2.0 | 15.8 | 63100 | 6.5 | 1.9 | 2.0 | 16.6 |  |
| CC(C)C=C1C(=O)Nc2ccc(S(=O)(=O)N(CC(C)C)CC(O)C(Cc3ccccc3)NC(=O)OC3COC4OCCC34)cc21 (stereo not shown) [Compound 6, {1-Benzyl-2-hydroxy-3-[isobutyl-(3-isobutylidene-2-oxo-2,3-dihydro-1H-indole-5-sulfonyl)-amino]-propyl}-carbamic acid hexahydro-furo[2,3-b]furan-3-yl ester] | 7.1 | 2.0 | 1.6 | 20 | 50100 | 7.9 | 2.5 | 1.4 | 19.5 |  |
| CC(C)CN(CC(O)C(Cc1ccccc1)NC(=O)OC1COC2OCCC12)S(=O)(=O)c1ccc2c(c1)/C(=C\c1ccco1)C(=O)N2 (stereo not shown) [Compound 7, Hexahydrofuro[2,3-b]furan-3-yl N-{1-benzyl-3-[({3-[(E)-2-furylmethylidene]-2-oxo-2,3-dihydro-1H-indol-5-yl}sulfonyl) (isobutyl)amino]-2-hydroxypropyl}carbamate] | 2.6 | 5.9 | 1.7 | 20 | 79400 | 1.9 | 1.8 | 2.4 | 19.5 |  |
| COc1ccc(C=C2C(=O)Nc3ccc(S(=O)(=O)N(CC(C)C)CC(O)C(Cc4ccccc4)NC(=O)OC4COC5OCCC45)cc32)cc1 (stereo not shown) [Compound 8, (1-Benzyl-2-hydroxy-3-{isobutyl-[3-(4-methoxy-benzylidene)-2-oxo-2,3-dihydro-1H-indole-5-sulfonyl]-amino}-propyl)-carbamic acid hexahydro-furo[2,3-b]furan-3-yl ester] | 5.0 | 2.0 | 1.5 | 20 | 63100 | 1.7 | 1.7 | 1.5 | 20 |  |
| Cc1ccc(C=C2C(=O)Nc3ccc(S(=O)(=O)N(CC(C)C)CC(OP(=O)(O)O)C(Cc4ccccc4)NC(=O)OC4COC5OCCC45)cc32)o1 (stereo not shown) [Compound 19, (1-Benzyl-3-{isobutyl-[3-(5-methyl-furan-2-ylmethylene)-2-oxo-2,3-dihydro-1H-indole-5-sulfonyl]-amino}-2-phosphonooxy-propyl)-carbamic acid hexahydro-furo[2,3-b]furan-3-yl ester] |  |  |  |  |  |  |  |  | 302 |  |
| CC(C)CN(CC(O)C(Cc1ccccc1)NC(=O)OC1COC2OCCC12)S(=O)(=O)c1ccc2c(c1)C(=Cc1ccc(C(=O)O)cc1)C(=O)N2 (stereo not shown) [Compound 20, 4-(5-{[3-(Hexahydro-furo[2,3-b]furan-3-yloxycarbonylamino)-2-hydroxy-4-phenyl-butyl]-isobutyl-sulfamoyl}-2-oxo-1,2-dihydro-indol-3-ylidenemethyl)-benzoic acid] |  |  |  |  |  |  |  |  | 891 |  |

— patent US7199148B2, “Broadspectrum substituted oxindole sulfonamide HIV protease inhibitors” (priority 2002, dated 2007)
